Reference: ChEMBL document CHEMBL3580597 (J Med Chem, 2015)

Experiments:
[1] = target: T1, Bromodomain-containing protein 2 (Homo sapiens, UniProt P25440); test: Binding affinity to biotinylated BRD2 BD1 (72 to 205 amino acid residues) (unknown origin) expressed in Rosetta2 DE3 cells by bio-layer interferometry method
[2] = target: T1, Bromodomain-containing protein 2; test: Binding affinity to biotinylated BRD2 BD2 (349 to 460 amino acid residues) (unknown origin) expressed in Rosetta2 DE3 cells by bio-layer interferometry method
[3] = target: T2, ATPase family AAA domain-containing protein 2B (Homo sapiens, UniProt Q9ULI0); test: Binding affinity to biotinylated ATAD2B (953 to 1086 amino acid residues) (unknown origin) expressed in Rosetta2 DE3 cells by bio-layer interferometry method
T2 sequence (Q9ULI0 whole entry): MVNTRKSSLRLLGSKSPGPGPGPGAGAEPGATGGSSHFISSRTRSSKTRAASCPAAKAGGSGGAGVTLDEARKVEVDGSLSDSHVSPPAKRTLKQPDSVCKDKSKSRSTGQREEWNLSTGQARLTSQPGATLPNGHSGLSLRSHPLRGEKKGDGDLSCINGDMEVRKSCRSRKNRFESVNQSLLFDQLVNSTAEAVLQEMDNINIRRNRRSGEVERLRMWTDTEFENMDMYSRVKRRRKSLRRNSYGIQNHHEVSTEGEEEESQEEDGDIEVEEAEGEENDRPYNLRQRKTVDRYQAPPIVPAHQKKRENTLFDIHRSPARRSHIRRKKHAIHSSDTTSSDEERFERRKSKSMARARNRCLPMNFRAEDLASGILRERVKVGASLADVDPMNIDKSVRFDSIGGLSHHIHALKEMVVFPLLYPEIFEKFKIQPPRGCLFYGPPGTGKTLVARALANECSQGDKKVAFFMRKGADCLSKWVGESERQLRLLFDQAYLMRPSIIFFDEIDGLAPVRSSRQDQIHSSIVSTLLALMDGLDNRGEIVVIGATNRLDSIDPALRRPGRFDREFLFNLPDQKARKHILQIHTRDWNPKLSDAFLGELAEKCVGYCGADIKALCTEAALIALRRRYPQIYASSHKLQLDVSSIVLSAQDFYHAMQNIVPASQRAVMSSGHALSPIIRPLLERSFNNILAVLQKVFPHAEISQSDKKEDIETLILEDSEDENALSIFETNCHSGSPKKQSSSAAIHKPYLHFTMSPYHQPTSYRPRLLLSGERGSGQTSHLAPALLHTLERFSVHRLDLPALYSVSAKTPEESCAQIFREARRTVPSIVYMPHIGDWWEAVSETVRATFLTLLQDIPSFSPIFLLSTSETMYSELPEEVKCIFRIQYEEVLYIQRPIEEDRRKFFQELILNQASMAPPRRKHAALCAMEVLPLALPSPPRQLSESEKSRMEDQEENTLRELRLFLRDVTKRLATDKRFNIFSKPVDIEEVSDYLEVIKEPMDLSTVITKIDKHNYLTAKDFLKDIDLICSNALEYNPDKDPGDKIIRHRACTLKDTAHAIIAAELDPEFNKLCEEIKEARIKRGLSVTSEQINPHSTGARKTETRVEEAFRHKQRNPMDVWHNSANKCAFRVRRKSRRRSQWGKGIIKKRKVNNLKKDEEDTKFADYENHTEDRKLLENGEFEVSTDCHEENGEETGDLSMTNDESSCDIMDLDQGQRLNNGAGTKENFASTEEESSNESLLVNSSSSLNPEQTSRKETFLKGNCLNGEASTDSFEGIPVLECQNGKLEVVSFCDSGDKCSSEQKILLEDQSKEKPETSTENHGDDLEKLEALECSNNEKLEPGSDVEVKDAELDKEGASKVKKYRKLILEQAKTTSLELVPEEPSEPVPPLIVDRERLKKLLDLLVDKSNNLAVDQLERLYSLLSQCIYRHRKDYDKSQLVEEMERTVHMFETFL

[4] = target: T3, Transcription intermediary factor 1-alpha (Homo sapiens, UniProt O15164); test: Binding affinity to biotinylated TRIM24 (790 to 972 amino acid residues) (unknown origin) expressed in Rosetta2 DE3 cells by bio-layer interferometry method
T3 sequence (O15164 whole entry): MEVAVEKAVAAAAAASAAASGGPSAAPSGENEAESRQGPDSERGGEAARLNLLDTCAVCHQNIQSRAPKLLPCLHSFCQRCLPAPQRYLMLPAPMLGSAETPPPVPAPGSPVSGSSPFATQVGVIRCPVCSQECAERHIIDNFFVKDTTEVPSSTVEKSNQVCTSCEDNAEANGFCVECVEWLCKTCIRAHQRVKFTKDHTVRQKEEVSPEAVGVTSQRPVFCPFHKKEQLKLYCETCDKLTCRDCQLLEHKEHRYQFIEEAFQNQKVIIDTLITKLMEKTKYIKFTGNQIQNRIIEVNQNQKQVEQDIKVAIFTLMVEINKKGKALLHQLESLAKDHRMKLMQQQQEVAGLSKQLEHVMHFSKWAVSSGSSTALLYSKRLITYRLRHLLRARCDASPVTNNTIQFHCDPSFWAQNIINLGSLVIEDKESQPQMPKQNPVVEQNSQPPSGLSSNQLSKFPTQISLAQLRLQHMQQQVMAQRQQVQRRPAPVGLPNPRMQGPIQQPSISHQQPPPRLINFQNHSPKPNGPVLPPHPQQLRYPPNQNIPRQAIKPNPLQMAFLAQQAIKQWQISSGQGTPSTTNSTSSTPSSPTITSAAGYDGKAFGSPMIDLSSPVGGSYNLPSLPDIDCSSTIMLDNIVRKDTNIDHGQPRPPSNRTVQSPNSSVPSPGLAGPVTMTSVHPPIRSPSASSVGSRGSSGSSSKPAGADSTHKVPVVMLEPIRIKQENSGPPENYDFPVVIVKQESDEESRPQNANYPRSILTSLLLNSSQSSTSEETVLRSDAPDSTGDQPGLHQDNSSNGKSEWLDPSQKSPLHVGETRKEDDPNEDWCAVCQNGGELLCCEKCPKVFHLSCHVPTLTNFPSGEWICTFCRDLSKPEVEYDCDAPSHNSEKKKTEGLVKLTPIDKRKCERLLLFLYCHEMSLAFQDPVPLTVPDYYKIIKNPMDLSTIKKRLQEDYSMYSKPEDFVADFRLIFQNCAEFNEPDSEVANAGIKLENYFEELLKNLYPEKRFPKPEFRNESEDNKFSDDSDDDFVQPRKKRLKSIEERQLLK

[5] = target: Histone-lysine N-methyltransferase 2A (Homo sapiens, UniProt Q03164); test: Binding affinity to biotinylated MLL1 (1566 to 1784 amino acid residues) (unknown origin) expressed in Rosetta2 cells by bio-layer interferometry method
MV4-11 = test: cells; format: functional, cell-based; conditions: Homo sapiens, MV4-11, 96 h
K562 = test: cells; format: functional, cell-based; conditions: Homo sapiens, K562, 96 h
[6] = target: T4, Bromodomain-containing protein 4 (Homo sapiens, UniProt O60885); test: biochemical
[7] = target: T4, Bromodomain-containing protein 4; test: biochemical; remark: listed apart in the source

T1 sequence (P25440 whole entry, the tested form may be a part): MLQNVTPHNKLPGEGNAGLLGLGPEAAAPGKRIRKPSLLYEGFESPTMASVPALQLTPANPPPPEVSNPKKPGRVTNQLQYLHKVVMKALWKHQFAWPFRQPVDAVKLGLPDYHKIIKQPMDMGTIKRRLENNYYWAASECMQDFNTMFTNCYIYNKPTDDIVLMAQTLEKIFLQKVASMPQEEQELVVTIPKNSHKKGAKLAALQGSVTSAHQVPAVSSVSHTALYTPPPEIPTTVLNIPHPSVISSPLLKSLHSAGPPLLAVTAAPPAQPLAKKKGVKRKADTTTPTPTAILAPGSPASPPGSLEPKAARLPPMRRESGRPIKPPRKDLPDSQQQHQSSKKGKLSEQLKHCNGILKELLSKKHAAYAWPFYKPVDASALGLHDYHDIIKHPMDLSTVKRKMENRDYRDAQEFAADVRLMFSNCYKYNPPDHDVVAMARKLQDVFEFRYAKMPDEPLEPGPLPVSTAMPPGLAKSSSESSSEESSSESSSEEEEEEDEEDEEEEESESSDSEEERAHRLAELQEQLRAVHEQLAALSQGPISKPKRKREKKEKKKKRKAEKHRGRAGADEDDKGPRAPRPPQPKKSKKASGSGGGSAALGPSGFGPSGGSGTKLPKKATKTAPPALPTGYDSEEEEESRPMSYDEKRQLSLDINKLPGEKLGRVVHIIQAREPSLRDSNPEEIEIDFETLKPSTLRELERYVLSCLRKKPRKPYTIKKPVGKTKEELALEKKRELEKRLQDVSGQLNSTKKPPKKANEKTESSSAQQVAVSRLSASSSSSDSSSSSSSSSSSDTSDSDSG
Sequence of Histone-lysine N-methyltransferase 2A (Q03164 1-2718 limits assumed): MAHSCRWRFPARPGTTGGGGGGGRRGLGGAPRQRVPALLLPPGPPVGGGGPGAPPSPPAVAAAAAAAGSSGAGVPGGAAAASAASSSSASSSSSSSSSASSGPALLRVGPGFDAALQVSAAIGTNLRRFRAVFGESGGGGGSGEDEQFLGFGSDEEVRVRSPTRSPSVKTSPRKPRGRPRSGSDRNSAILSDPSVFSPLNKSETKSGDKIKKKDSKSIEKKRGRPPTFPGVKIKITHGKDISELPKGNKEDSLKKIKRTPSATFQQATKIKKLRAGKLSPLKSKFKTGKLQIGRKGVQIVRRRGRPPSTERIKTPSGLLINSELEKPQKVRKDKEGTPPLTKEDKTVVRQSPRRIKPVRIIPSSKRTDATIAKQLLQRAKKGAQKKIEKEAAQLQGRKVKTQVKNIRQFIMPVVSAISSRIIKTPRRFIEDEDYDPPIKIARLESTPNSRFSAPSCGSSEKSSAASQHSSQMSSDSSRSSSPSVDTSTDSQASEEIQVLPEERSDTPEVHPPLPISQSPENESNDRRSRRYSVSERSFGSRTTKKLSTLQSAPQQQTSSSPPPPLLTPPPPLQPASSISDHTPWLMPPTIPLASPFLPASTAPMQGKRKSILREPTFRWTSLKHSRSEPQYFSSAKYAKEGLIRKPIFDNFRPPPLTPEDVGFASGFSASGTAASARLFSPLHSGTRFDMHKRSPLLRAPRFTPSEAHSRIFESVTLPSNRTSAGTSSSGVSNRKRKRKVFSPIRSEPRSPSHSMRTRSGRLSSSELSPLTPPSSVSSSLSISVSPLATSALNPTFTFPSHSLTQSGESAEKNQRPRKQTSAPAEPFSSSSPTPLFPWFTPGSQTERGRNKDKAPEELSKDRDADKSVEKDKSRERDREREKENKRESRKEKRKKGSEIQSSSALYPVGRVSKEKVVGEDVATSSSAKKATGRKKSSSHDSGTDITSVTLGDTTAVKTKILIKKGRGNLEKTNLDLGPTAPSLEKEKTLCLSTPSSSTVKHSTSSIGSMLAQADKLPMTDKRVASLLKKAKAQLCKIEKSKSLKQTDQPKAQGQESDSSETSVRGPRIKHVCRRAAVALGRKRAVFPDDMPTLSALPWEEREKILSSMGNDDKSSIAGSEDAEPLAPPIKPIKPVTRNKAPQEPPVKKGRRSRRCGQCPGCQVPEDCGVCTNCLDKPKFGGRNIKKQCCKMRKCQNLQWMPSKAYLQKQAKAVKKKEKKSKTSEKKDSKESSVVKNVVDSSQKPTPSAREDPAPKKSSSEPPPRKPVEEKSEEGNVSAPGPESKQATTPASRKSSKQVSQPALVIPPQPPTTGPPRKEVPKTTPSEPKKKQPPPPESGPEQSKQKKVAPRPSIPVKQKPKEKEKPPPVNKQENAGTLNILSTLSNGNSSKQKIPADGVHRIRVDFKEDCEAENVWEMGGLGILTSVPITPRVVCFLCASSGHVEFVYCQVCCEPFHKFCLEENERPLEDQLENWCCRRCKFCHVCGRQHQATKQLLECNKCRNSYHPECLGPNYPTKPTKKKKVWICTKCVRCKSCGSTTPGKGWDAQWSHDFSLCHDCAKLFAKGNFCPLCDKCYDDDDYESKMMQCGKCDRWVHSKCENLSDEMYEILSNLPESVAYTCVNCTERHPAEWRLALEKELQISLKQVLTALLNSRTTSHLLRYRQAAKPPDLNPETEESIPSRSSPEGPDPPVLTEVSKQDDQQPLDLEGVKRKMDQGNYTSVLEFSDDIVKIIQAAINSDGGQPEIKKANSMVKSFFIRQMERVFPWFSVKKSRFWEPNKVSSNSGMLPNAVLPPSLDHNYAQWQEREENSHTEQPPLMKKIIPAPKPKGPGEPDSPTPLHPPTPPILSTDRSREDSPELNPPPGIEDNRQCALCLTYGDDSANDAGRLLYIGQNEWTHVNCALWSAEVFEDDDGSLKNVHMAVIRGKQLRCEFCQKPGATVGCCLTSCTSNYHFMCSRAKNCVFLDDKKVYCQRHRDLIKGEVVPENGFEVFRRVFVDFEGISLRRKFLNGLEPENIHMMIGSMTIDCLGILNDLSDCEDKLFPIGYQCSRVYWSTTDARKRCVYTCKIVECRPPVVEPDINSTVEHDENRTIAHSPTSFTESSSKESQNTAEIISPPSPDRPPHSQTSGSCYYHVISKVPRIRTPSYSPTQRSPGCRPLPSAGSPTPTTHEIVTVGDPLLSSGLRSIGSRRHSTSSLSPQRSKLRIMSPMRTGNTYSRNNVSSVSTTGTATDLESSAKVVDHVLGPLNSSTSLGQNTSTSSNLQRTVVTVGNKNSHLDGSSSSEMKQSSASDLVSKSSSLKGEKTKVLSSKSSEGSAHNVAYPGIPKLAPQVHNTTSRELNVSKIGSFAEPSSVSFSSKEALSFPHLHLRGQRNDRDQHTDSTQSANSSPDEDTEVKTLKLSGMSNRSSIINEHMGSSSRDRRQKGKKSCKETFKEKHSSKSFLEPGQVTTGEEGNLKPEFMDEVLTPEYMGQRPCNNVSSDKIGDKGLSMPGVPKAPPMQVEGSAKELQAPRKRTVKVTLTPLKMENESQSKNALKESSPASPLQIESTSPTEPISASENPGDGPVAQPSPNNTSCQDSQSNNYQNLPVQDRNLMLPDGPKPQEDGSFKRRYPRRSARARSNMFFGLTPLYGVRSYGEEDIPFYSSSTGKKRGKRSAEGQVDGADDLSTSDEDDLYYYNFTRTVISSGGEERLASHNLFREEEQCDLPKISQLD
Sequence of Histone-lysine N-methyltransferase 2A (Q03164 2719-3969 limits assumed): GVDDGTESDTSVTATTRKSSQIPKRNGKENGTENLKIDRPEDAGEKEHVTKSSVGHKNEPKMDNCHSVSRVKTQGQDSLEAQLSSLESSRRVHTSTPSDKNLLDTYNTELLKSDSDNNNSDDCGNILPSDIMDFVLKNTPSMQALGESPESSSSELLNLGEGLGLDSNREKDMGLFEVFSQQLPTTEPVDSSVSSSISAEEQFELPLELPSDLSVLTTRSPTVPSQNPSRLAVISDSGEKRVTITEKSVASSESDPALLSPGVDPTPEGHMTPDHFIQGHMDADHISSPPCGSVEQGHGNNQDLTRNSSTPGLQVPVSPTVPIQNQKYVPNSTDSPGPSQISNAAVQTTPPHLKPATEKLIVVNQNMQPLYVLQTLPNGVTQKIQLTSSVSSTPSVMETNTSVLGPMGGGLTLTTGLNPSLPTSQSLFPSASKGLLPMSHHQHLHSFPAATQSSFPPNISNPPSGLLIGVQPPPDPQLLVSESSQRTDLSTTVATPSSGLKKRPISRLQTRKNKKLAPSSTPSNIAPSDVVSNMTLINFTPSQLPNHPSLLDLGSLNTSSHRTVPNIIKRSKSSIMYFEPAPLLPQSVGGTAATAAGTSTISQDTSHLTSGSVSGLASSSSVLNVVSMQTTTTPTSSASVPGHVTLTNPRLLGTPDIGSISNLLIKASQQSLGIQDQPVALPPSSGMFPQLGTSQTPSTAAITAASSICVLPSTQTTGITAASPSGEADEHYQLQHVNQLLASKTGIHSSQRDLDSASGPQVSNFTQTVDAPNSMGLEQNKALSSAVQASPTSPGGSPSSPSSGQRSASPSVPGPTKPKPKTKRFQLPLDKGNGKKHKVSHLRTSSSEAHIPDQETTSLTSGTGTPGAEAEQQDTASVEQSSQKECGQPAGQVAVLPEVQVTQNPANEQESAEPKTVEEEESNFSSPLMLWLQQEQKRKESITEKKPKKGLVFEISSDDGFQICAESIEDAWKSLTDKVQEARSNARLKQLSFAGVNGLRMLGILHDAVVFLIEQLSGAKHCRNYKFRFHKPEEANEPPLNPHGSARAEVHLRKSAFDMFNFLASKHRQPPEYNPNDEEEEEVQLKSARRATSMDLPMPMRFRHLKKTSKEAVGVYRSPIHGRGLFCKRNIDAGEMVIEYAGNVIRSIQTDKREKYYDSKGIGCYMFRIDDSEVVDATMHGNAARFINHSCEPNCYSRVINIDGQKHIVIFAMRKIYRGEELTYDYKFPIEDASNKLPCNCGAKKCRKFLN

Kd [1]: 48.1 nM
Kd [2]: 29.6 nM
Kd [3]: > 10 µM
Kd [4]: 10 µM
Kd [5]: 9.5 µM
IC50 (MV4-11): 20 nM
IC50 (K562): > 2000 nM
Kd [6]: 47 nM
Kd [7]: 44.6 nM
Compound: COc1cc2c(cc1-c1c(C)noc1C)[nH]c1ccnc(-c3c(C4CC4)n[nH]c3C)c12
